Where “and” joins values, the source holds several entries; their conditions need not be identical. Equal values may be shown once. Entries after “also recorded” stand apart in the source; their conditions may differ.
Legend:
human OX1R = biological target: T1, human OX1R (Homo sapiens, UniProt O43613); assay: Radioligand displacement binding, human OX1R (HEK293T membranes); details: for OX1R selectivity Ki(hOX2R)/Ki(hOX1R): Ki for OX2R divided by Ki for OX1R; for Ki: mean ± SEM, at least three experiments in triplicate, HEK293T membranes, radioligand [^3H]SB974042, read-out: Ki values (nM ± SEM) hOX1R
T1 construct: host or cells: HEK293T
T1 sequence (O43613 1-425): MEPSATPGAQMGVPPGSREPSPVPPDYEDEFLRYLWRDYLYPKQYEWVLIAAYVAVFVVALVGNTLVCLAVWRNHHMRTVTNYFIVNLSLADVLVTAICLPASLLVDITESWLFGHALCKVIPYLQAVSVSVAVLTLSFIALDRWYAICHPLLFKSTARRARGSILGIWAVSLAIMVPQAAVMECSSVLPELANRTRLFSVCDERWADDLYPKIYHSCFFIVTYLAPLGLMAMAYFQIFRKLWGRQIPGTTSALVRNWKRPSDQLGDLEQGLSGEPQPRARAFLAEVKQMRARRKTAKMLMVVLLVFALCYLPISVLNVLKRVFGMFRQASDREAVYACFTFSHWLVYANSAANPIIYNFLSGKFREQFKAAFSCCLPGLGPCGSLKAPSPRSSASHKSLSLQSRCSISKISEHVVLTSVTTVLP
Protocol: (§1) In comparison with the lead JH112, receptor binding affinities of the test compounds 1a–f have been determined by radioligand displacement studies, as described previously, applying membranes of HEK293T cells transiently expressing the human OX1R or OX2R (Table 1).
Binding affinities to the human orexin receptor subtypes OX1R and OX2R were determined as reported. Membranes were prepared from HEK293T cells transiently transfected with the cDNA for the receptor (OX1R: human HCRTR1 from cDNA Resource Center, Bloomsburg University, Bloomsberg, PA; OX2R: human HCRTR2 from Genscript, Piscataway, NJ). […] Competition binding experiments were conducted in binding buffer (50 mM Tris, 5 mM MgCl2, 0.1 mM EDTA, 5 µg/mL bacitracin and 5 µg/mL soybean trypsin inhibitor at pH 7.4) at final protein concentrations of 4 µg/well (OX1R) and 3 µg/well ([…]) or the OX2R radioligand [^3H]EMPA (specific activity: 84 Ci/mmol) both at a final concentration of 0.7 nM (both purchased from Novandi, Södertälje, Sweden) and varying concentrations of the competing test compounds. Radioactivity was separated by filtration on GF/B glass fiber mats and counted with a scintillation counter (Microbeta from PerkinElmer, Rodgau, Germany). […] The protein concentration was determined applying the method of Lowry. Competition curves were analyzed by nonlinear regression using the algorithms implemented in PRISM 10.2 (GraphPad Software, San Diego, CA) to get IC50 values, which were subsequently transformed into the Ki values employing the equation of Cheng and Prusoff.

human OX2R = biological target: T2, human OX2R (Homo sapiens, UniProt O43614); assay: Radioligand displacement binding, human OX2R (HEK293T membranes); details: mean ± SEM, at least three experiments in triplicate; HEK293T homogenates, radioligand [^3H]EMPA; read-out: Ki values (nM ± SEM) hOX2R
T2 construct: host or cells: HEK293T
T2 sequence (O43614 1-444): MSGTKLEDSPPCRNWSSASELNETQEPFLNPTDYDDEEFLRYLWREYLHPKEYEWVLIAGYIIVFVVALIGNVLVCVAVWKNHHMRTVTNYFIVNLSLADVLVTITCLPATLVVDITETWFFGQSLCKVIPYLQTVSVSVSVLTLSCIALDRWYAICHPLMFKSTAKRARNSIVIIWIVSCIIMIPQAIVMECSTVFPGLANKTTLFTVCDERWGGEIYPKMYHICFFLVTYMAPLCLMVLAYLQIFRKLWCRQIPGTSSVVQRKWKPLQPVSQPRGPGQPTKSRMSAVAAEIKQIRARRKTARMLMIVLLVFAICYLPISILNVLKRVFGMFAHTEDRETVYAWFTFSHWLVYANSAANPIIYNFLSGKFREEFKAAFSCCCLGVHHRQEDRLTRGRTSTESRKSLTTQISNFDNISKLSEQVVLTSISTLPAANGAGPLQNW
Protocol: as §1
Binding affinities to the human orexin receptor subtypes OX1R and OX2R were determined as reported. Membranes were prepared from HEK293T cells transiently transfected with the cDNA for the receptor (OX1R: human HCRTR1 from cDNA Resource Center, Bloomsburg University, Bloomsberg, PA; OX2R: human HCRTR2 from Genscript, Piscataway, NJ). […] Competition binding experiments were conducted in binding buffer (50 mM Tris, 5 mM MgCl2, 0.1 mM EDTA, 5 µg/mL bacitracin and 5 µg/mL soybean trypsin inhibitor at pH 7.4) at final protein concentrations of 4 µg/well (OX1R) and 3 µg/well (OX2R) when incubating the OX1R specific radioligand [^3H]SB674042 (specific activity: 43 Ci/mmol) or the OX2R radioligand [^3H]EMPA (specific activity: 84 Ci/mmol) both at a final concentration of 0.7 nM (both purchased from Novandi, Södertälje, Sweden) and varying concentrations of the competing test compounds. Radioactivity was separated by filtration on GF/B glass fiber mats and counted with a scintillation counter (Microbeta from PerkinElmer, Rodgau, Germany). Non-specific binding was determined with 10 µM of SB674042 or EMPA. The protein concentration was determined applying the method of Lowry. Competition curves were analyzed by nonlinear regression using the algorithms implemented in PRISM 10.2 (GraphPad Software, San Diego, CA) to get IC50 values, which were subsequently transformed into the Ki values employing the equation of Cheng and Prusoff.

P-gp = P-gp (Homo sapiens, UniProt P08183); assay: Basolateral-to-apical transport in Caco-2 monolayers with and without the P-gp inhibitor zosuquidar; details: for effect of P-gp inhibitor zosuquidar (ZSQ) on basolateral-to-apical transport / passive permeability (transcellular passive diffusion): Caco-2 monolayers, 4 h; for effect of P-gp inhibitor zosuquidar (ZSQ) on basolateral-to-apical transport: 5 µM compound, 1 µM ZSQ, n = 8; for passive permeability (transcellular passive diffusion): 5 µM, compared with digoxin; for P-gp substrate assessment: Caco-2 monolayer model with zosuquidar
Chain of P-gp (P08183 whole entry, the tested form may be a part): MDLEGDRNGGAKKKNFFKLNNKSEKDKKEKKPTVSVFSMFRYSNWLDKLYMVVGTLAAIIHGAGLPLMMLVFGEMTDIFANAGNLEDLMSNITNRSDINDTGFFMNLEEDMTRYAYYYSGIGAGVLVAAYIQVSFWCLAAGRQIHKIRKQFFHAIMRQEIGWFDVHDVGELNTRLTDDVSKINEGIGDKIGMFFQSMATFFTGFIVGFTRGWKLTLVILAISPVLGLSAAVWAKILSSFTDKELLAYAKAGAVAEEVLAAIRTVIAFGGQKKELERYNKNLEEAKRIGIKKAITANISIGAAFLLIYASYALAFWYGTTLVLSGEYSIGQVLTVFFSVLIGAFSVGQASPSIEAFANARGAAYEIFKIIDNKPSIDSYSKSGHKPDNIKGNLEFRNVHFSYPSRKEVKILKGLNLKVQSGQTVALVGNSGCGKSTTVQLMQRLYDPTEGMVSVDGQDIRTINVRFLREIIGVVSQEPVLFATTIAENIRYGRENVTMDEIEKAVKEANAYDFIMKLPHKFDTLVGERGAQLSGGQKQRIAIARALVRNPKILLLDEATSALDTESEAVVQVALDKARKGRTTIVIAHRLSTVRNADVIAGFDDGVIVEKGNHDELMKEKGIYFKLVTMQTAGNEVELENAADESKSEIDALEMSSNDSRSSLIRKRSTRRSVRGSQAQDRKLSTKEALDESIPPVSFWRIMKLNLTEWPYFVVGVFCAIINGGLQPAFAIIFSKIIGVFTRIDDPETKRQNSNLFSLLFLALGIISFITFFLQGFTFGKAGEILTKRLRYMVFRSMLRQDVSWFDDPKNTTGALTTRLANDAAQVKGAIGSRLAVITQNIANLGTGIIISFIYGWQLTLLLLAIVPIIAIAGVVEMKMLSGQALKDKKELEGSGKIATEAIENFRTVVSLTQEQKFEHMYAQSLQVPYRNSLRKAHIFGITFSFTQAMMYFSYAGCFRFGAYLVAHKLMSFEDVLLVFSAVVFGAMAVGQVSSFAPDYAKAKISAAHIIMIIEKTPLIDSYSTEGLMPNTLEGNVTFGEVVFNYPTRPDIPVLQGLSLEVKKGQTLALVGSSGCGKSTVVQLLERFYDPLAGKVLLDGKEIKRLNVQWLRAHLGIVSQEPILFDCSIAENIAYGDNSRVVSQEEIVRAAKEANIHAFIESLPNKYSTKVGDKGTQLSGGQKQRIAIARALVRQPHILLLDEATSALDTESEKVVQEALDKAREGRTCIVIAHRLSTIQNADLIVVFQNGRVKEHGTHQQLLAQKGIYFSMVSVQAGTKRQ
Protocol: Amounts being present after 4 h in the apical compartment are shown in % of the amount administered to the basal side.
In order to characterize compounds as substrates of P-gp, monolayers of Caco-2 cells were used in line with previous studies [53]. In brief, transport from the basolateral to apical compartment was determined after 4 h in the absence or presence of the P-gp inhibitor zosuquidar (Biomol GmbH, Hamburg, Germany). […] Zosuquidar was administered in a concentration of 1 µM to the basal and apical compartments. Results are expressed in % of the amount administered to the basolateral compartment at the beginning of the experiment. The P-gp substrate digoxin (obtained in tritium-labeled form from ARC, St. Louis, USA and in unlabeled form from Merck KGaA, Darmstadt, Germany) was used as positive control. Monolayer integrity was checked routinely using tritium-labeled inulin (obtained from ARC, St. Louis, USA). […] LC–MS analyses were performed using an ultra-high-performance liquid chromatography (UPLC) (Ultimate 3000, Thermo Fisher Scientific) coupled to a high-resolution mass spectrometer (QExactive Orbitrap Focus, Thermo Fisher Scientific). The analytical column was an Acquity UPLC BEH C18, 1.7 µm, 2.1 × 100 mm column (Waters GmbH) and 80% methanol with 0.1% formic acid was used as mobile phase during an isocratic elution for 5 min at a flow rate of 0.35 mL/min. For sample preparation, 200 µL cell culture supernatant were mixed with 600 µL methanol including 50 ng/mL clopidogrel-d3 as an internal standard. Samples were centrifuged, the solvent of 600 µL supernatant was evaporated to dryness and 100 µL mobile phase was used for reconstitution. The injection volume was 5 µL. All experiments were performed with eight biological replicates. Unpaired t-test was used for analyzing differences with p-values < 0.05 considered significant.

[1] = Partition coefficient logD7.4 (n-octanol/PBS); assay type: physicochemical; details: n-octanol/PBS pH 7.4, mean ± SD
Protocol: Phosphate-buffered saline (PBS, 480 µL, pH 7.4) and n-octanol (500 µL) were placed in an Eppendorf tube. The radioligand (30–50 kBq, [^18F]1c or [^18F]1f) in PBS (20 µL) was added to the tube, vortexed for 1 min and centrifuged (20,000g, 1 min). Three samples (100 µL) from each layer were collected and measured by a γ-counter (Wallac Wizard 1470, PerkinElmer, USA). After the average cpm values from the triplicate measurements of each layer were calculated, the logD7.4 was determined as the logarithm of the ratio of n-octanol (mean cpm) to PBS (mean cpm). The mean logD7.4 value ± standard deviation was determined by at least three independent experiments each performed in triplicates.

[2] = Radioligand stability in human plasma and human serum; assay type: in vitro ADME; details: 37 °C, up to 120 min, radio-HPLC
Protocol: (§2) The radioligand (1–2 MBq, [^18F]1c or [^18F]1f) in PBS (20 µL) was incubated with human serum, human plasma or rat plasma (400 µL) at 37 °C. Samples (50 µL) were taken at 5, 10, 15, 30, 60 and 120 min, mixed with aqueous TFA (10%, 50 µL) and centrifuged (20,000g, 2 min). The supernatant (20 µL) was analyzed by radio-HPLC.

[3] = Plasma protein binding (MicroSpin G-50 columns); assay type: in vitro ADME; details: human plasma, 37 °C, read-out: plasma protein binding (PPB) (converted)
Protocol: The radiotracer (100–200 kBq, [^18F]1c or [^18F]1f) in PBS (2 µL) was incubated with human plasma (100 µL) at 37 °C for 10 min. After preconditioning of the microcolumns according to the instructions of the manufacturer (illustra MicroSpin G-50 columns from GE Healthcare), a sample (40 µL) of was applied to the resin. The microspin tubes were centrifuged (2000g, 2 min) and both, eluate and resin were measured by a γ-counter (Wallac Wizard 1470, PerkinElmer, USA). The PPB was calculated as percentage of bound ligand (cpm of resin) from the total amount of radioactivity (sum of cpm of resin and eluate). Samples from incubation of the radiotracer in saline instead of plasma served as negative control. The mean PPB value was determined from at least two independent experiments each performed in triplicate.

[4] = Dynamic small animal PET imaging of the rat brain; assay type: in vivo
Protocol: Small animal PET experiments in rats were performed to allow for an initial comparison in single animals that were injected with [^18F]1c or [^18F[1f alone, after preinjection of suvorexant (1 mg/kg), and after pretreatment with cyclosporine A (25 mg/kg) (Fig. 3). […] Therefore, to elucidate the P-gp-mediated transport of the compounds, specific experiments were performed.
Fig. 3 Time-activity curves and horizontal PET slices of the rat brain after injection of [^18F]1c (A, C) and [^18F]1f (B, D). Single animals were injected with the tracer alone (“control”, blue) compared to animals preinjected with suvorexant (1 mg/kg, 15 min prior to tracer injection, each n = 1; “blocking”, red) or cyclosporine A (25 mg/kg, 30 min prior to tracer injection, each n = 1; green)
Ten- to 13-week-old female CD Sprague–Dawley rats (250–300 g, Charles River) were housed with free access to standard rat chow (Purina) and water at all times. Dynamic small animal PET scans were performed on an Inveon™ microPET scanner (Siemens Healthineers AG, Erlangen, Germany). All rats were continuously anesthetized using isoflurane (2–3% in oxygen, 0.8 L/min) and placed on a heating pad (37 °C) during the PET scan. Rats were injected intravenously in the tail vein with the radioligand in saline (5–15 MBq in 200–300 µL, [^18F]1c or [^18F]1f). Pretreatment with suvorexant (1 mg/kg, 15 min prior to tracer injection) or cyclosporine A (25 mg/kg, […] to tracer injection) was done intravenously. Dynamic PET scans were acquired from 0 to 60 min p.i. and consisted of 23 frames with increasing duration (12 × 10 s, 3 × 1 min, 5 × 5 min and 3 × 10 min). Subsequently, an attenuation scan with a rotating Co-57 point source was performed. The obtained dynamic emission images were subjected to an attenuation and decay correction. After the iterative maximum a posteriori (MAP) estimation for the image reconstruction, regions of interest (ROIs) were drawn for the whole brain. Computational processing of the PET scans was done with the software PMOD (PMOD Technologies LLC). The data obtained were finally converted into values expressed as percent of injected dose per gram (%ID/g).

[5] = Radioligand stability in rat plasma; assay type: in vitro ADME; details: 37 °C, up to 120 min, radio-HPLC
Protocol: as §2

| Structure (SMILES) | OX1R selectivity Ki(hOX2R)/Ki(hOX1R) (human OX1R) | Ki (human OX1R) | Ki (human OX2R) | effect of P-gp inhibitor zosuquidar (ZSQ) on basolateral-to-apical transport (P-gp) | passive permeability (transcellular passive diffusion) (P-gp) | also measured |
| --- | --- | --- | --- | --- | --- | --- |
| Cc1ccc(-n2nccn2)c(C(=O)N2CCCN(c3nc4cc(F)ccc4o3)CC2)c1 [1a] | 1.0 | 2.5 ± 0.62 nM | 2.5 ± 0.36 nM | – | – | – |
| Cc1ccc(-n2nccn2)c(C(=O)N2CCCN(c3nc4cc(F)ccc4s3)CC2)c1 [1b] | 1.3 | 1.9 ± 0.42 nM | 2.4 ± 0.49 nM | did not significantly reduce | greater than that of digoxin | – |
| Cc1ccc(-n2nccn2)c(C(=O)N2CCCN(c3nc4ccc(F)cc4s3)CC2)c1 [1c] | 1.2 | 0.99 ± 0.25 nM | 1.2 ± 0.2 nM | only moderately inhibited; also recorded: very modest, yet significant, effect | greater than that of digoxin | P-gp substrate assessment (P-gp): not efficient P-gp substrates |
| Cc1ccc(-n2nccn2)c(C(=O)N2CCCN(c3cnc4cc(F)ccc4n3)CC2)c1 [1d] | 0.7 | 1.2 ± 0.4 nM | 0.8 nM and 0.83 nM | did not significantly reduce | greater than that of digoxin | – |
| CC[C@H](C)[C@H]1CN(c2nc3cc(F)ccc3o2)CCCN1C(=O)c1cc(C)ccc1-n1nccn1 [1e] | 77 | 1.2 ± 0.28 nM | 92 ± 14 nM | – | – | decrease of OX1R affinity compared to JH112 (factor) (human OX1R; fluorine for chlorine replacement): 1.6 |
| CC[C@H](C)[C@H]1CN(c2nc3ccc(F)cc3s2)CCCN1C(=O)c1cc(C)ccc1-n1nccn1 [1f] | 77 | 0.69 ± 0.26 nM | 53 ± 7.8 nM | no effect; also recorded: did not significantly reduce | similarly high as with digoxin | P-gp substrate assessment (P-gp): not efficient P-gp substrates |
| Cc1ccc(-n2nccn2)c(C(=O)N2CCCN(c3nc4ccc([18F])cc4s3)CC2)c1 [[^18F]1c, [4-(6-[^18F]fluorobenzo[d]thiazol-2-yl)-1,4-diazepan-1-yl][5-methyl-2-(2H-1,2,3-triazol-2-yl)phenyl]methanone] | – | – | – | – | – | logD [1]: 2.28; stability in human plasma [2]: stable over 120 min; stability in human serum [2]: stable over 120 min; fraction unbound at 10 min [3]: 0.34; brain uptake after pretreatment with cyclosporine A ([4]; cyclosporine A 25 mg/kg i.v. prior to tracer, n = 1): 0.25 %ID/g; brain uptake after preinjection of suvorexant ([4]; suvorexant 1 mg/kg i.v. 15 min prior to tracer, n = 1): 0.25 %ID/g; time of maximum brain uptake p.i. ([4]; tracer alone i.v.): about 40 s; maximum brain uptake ([4]; tracer alone i.v., whole brain, n = 1): 0.17 %ID/g; stability in rat plasma [5]: stable over 120 min |

— PMC11374953, “Heteroaryl derivatives of suvorexant as OX1R selective PET ligand candidates: Cu-mediated ^18F-fluorination of boroxines, in vitro and initial in vivo evaluation” (EJNMMI Research, 2024)
